PMC10672842, “Anti-Trypanosoma cruzi Activity, Mutagenicity, Hepatocytotoxicity and Nitroreductase Enzyme Evaluation of 3-Nitrotriazole, 2-Nitroimidazole and Triazole Derivatives” (Molecules, 2023)
Where two headings read alike, the source gives them in different places.

Columns and labels:
[1] = In vitro cytotoxicity of L929 cells (AlamarBlue); type: cell-based, mice; settings: mouse, four days
Experimental: For this bioassay, 4000 mammalian cells in 200 µL of RPMI-1640 medium (pH 7.2–7.4) (Gibco BRL) plus 10% fetal bovine serum and 2 mM glutamine were added to each well of a 96-well microtiter plate, which was incubated for three days at 37 °C. […] After this period, 20 µL of AlamarBlue^TM was added to each well, and the plate was incubated for another 4–6 h. Then, the absorbance was measured at 570 nm. Controls with cells not treated and treated with benznidazole were performed in parallel, and triplicates were performed on the same plate. The results are expressed as the percent difference in the reduction between treated (CT) and untreated cells (UT) using the following equation:(1) 117.216Abs570 TC−80.586(Abs600 TC)/117.216Abs570 UT−80.586(Abs600 UT) × 100

[2] = tested on: T. cruzi nitroreductase enzyme (TcNTR); assay: Kinetic assay with Trypanosoma cruzi nitroreductase enzyme (NADH oxidation); type: biochemical; settings: for Kobs Deriv./Kobs BZN 50 µM: 50 µM derivative
Experimental: To determine a potential mechanism of action, nitroazole derivatives 5, 6, 8 and 9 were evaluated as substrates of the T. cruzi nitroreductase enzyme (TcNTR) and compared to BZN, the reference prodrug (Table 2). The enzymatic activity was measured by monitoring the oxidation of NADH, the first substrate of the enzyme, via spectrophotometric assays. […] At a concentration of 25 µM, derivatives 5 and 8 were metabolized at rates 2.3 and 2.6 times higher than that of BZN, respectively. At 50 µM, the compounds presented metabolism rates 1.6 and 3.0 times higher than that of BZN, respectively.
The protocols for expressing, purifying and conducting kinetic analysis with the recombinant TcNTR enzyme were adapted from the methods originally developed by Shane Wilkinson, with certain modifications.
For the kinetics assays, it was prepared a 200 μL solution which included 50 mM Tris-Base at pH 7.5, with a constant concentration of both NADH (50 μM) and the substances 5, 6, 8, 9 or BZN. Specifically, two distinct fixed concentrations (25 and 50 μM) of the substances 5, 6, 8, 9 or BZN were tested. These prepared mixtures were then incubated for 5 min at room temperature. Subsequently, the reaction was initiated by adding NTR to achieve a final concentration of 10 μg/mL. The reaction rates were monitored using a Hitachi U-2900 spectrophotometer, measuring the consumption of the primary substrate, NADH (λ = 340 nm; ε = 6.220 M^−1 cm^−1), over a 2-min interval. The resulting data curves were analyzed through linear regression using OriginPro 2016 software. To evaluate the reaction rate (Kobs) obtained from the 25 and 50 μM concentrations of each substrate, comparisons were made with the reference values for BZN. Measurement errors were calculated using the formula: Error = Z × σ/√n, where ‘Z’ denotes the critical value, ‘σ’ represents the standard deviation and ‘n’ is the number of test measurements, which were performed at least in triplicate.

[3] = tested on: T. cruzi (Tulahuen strain); assay: In vitro anti-T. cruzi evaluation in an intracellular model (trypomastigote and amastigote forms, L929 host cells, β-galactosidase readout); type: cell-based, Trypanosoma cruzi; settings: for IC50: Tulahuen strain, intracellular trypomastigote and amastigote forms in L929 fibroblasts, 96 h, read-out: IC50 T. cruzi; for SI: selectivity index, L929 cells vs T. cruzi
Experimental: Derivatives 5–10 were evaluated in vitro against T. cruzi in an intracellular model on the trypomastigote and amastigote forms of the parasite of the Tulahuen strain [20]. This model is interesting because it mimics the life cycle of the parasite, as both clinically relevant forms are present in the environment. The mammalian host cells used were fibroblasts from L929 mice.
This assay was performed as previously described by Buckner et al. (1996) using T. cruzi (Tulahuen strain), which expresses the β-galactosidase gene of Escherichia coli. Infectious trypomastigote forms were obtained by culturing fibroblast monolayers of L929 mice in RPMI-1640 medium (pH 7.2–7.4) without phenol red (Gibco BRL), containing 10% fetal bovine serum and 2 mM glutamine. For the bioassay, 4000 L929 cells in 80 µL of supplemented medium were added to each well of a 96-well microtiter plate. After overnight incubation, 40,000 trypomastigotes in 20 µL were added to the cells and incubated for 2 h. […] The medium was then replaced with compound solutions at 1.0 µg/mL in fresh medium (200 µL), and the plate was incubated for 96 h at 37 °C. After this period, 50 µL of chlorophenol D-galactopyranoside red (500 µM) in 0.5% Nonidet P40 was added to each well, and the plate was incubated for 18 h at 37 °C. After this, the absorbance was measured at 570 nm. Controls with uninfected cells and infected cells treated with benznidazole were performed in parallel. The results are expressed as the percentage of T. cruzi growth inhibition in cells tested with compost compared to infected and untreated cells. The tests were performed in triplicate.

T. cruzi = tested on: T. cruzi; design: method as in PMID 10602737; settings: in vitro; read-out: IC50 against T. cruzi; cited from earlier work
[4] = Trypanosoma cruzi, TULAHUEN, L929, 96 h

SMILES | CC50 at 4 days [1] [µM] | Kobs Deriv./Kobs BZN 25 µM ([2]; 25 µM derivative, ratio of mean Kobs to BZN) | consumption rate by TcNTR, times higher than that of 6 ([2]; 50 µM) | Kobs Deriv./Kobs BZN 50 µM ([2]; ratio of mean Kobs to BZN) | melting point [°C] | IC50 [3, 4] [µM] | times more potent against T. cruzi than 6 ([3]; ratio of IC50 T. cruzi to 2-nitroimidazole ketone 6) | SI [3] | IC50 [3] [µM] | IC50 (T. cruzi) [µM]
O=C(Cn1cnc([N+](=O)[O-])n1)c1ccc(F)cc1F [Compound 5, 1-(2,4-Difluorophenyl)-2-(3-nitro-1H-1,2,4-triazol-1-yl)ethanone] | 1200 ± 0.01 | 2.3 | 6.6 | 1.6 | 117 to 119 | 1.8 ± 0.07 | approximately 50 | 667 | – | –
O=C(Cn1ccnc1[N+](=O)[O-])c1ccc(F)cc1F [Compound 6, 1-(2,4-Difluorophenyl)-2-(2-nitro-1H-imidazol-1-yl)ethanone] | 629 ± 61 | – | – | 0.3 | 128 to 130 | 90.9 | – | 7 | 91 ± 4 | –
O=C(Cn1cncn1)c1ccc(F)cc1F [Compound 7, 1-(2,4-Difluorophenyl)-2-(1H-1,2,4-triazol-1-yl)ethanone] | – | – | – | – | – | > 200 | – | – | – | –
OC(Cn1cncn1)c1ccc(F)cc1F (centres unmarked) [Compound 10, 1-(2,4-Difluorophenyl)-2-(1H-1,2,4-triazol-1-yl)ethanol] | > 3200 | – | – | – | 119 to 121 | 120 ± 90 | – | >27 | – | –
CC[C@@H]([C@H](C)O)n1ncn(-c2ccc(N3CCN(c4ccc(OC[C@@H]5CO[C@@](Cn6cncn6)(c6ccc(F)cc6F)C5)cc4)CC3)cc2)c1=O [posaconazole] | – | – | – | – | – | – | – | – | – | < 0.001
